Data taken from patent US6521431B1, “Biodegradable cross-linkers having a polyacid connected to reactive groups for cross-linking polymer filaments” (Access Pharmaceuticals, Inc., priority 1999, dated 2003).
Like-named read-outs stand apart in the source and are kept apart here.

Tests used:
[1] = pH 7.3
[2] = Release of labeled macromolecule and labeled polymer backbone from degrading gel network; format: physicochemical; details: pH 7.3, 37° C., monitored at 550 nm (FIG. 7)
Source text: Gels were formed by the same method as above, but in this case other compounds were included during the preparation of the gels to study the release of small molecules from the network. In one case, the network itself was labeled with a polymerizable derivative of tetramethyl rhodamine (TMRAHMAm) in order to show the release (degradation) of the network itself (see FIG. 6). In the other case fluorescent rhodamine labeled albumin (Molecular Probes, Eugene Oreg.) was included in the uncharged network to show diffusive release of a macromolecule from the network (see FIG. 7).
To a 3 mL test tube was charged TMRAHMAm (3.0 mg, 5.0 μmol; 30 μL of a 100 mg/mL solution in CHCl3) which was then placed under a 7 mtorr vacuum for 3 hours. […]
Gels were suspended in buffers of different pH's: All buffers were adjusted to the same ionic strength. The release of the rhodamine labeled albumin and the rhodamine labeled HPMA was monitored at 550 nm. 750 μL of the sample was removed from the vial and periodically measured on a spectrophotometer. […]
The examination of the release of macromolecules entrained in the polymer network provides another way to study the performance of these materials. […] Moreover, the release of a model macromolecular solute (TMRA-albumin, molecular weight of ^˜66,000 Da.) from the network is measured spectrophotometrically.

[3] = Swelling of acrylic acid / cross-linker water absorbent gel in PBS; format: physicochemical; details: acrylic acid gel cross-linked with HPMAGlySuc, after incubating in PBS pH 7.4 for 3 days
Protocol: To a 5 mL test tube was charged acrylic acid (675 μL, 9.85 mmol), water (1120 μL) and HPMAGlySuc (73 mg, 0.15 mmol) (5b). The cross-linker was weighed into the mixture as described earlier. The mixture was homogenized and APS was added (66.6 μL, […]) from a 2.43 M solution in water. This solution was again mixed. To this solution was added TMED (137 μL, 0.287 mmol) from a 2.10 M pH 7.0 solution in water. The mixture was vortexed rapidly for 15 seconds and the polymerizing solution was charged into two 1.0 mL syringes that acted as a mold for the polymerization. The syringes were allowed to sit for four hours. The gel was removed from the syringe and cut into pieces (^˜100 μL cylinders). The mass of the cylinder was recorded and placed in a 20 mL vial containing 18 mL of PBS at pH 7.4. The gels were incubated overnight with buffer. The next day the buffer was changed twice in order to keep a constant external pH as the gel was charged. After incubating in PBS for 3 days the gel has swollen with water to approximately 20 times the total initial polymer volume.

[4] = Degradation (degradative swelling) of HPMA-co-cross-linker hydrogels in buffer; details: HPMA-co-XL gels, 1.5 mole % cross-linker, pH 7.3 buffer, 37° C.
Protocol: The gels in this section were made at a mole feed ratio of 1.5 mole % cross-linker, as a copolymer with 98.5 mole % HPMA. Before the gels were polymerized, three 1.0 mL plastic syringes to be used as a slab gel template were silylanized by briefly incubating them in a heptane solution containing Sigmacote and oven drying at 90° C.
The wire was held in place by a septa which was placed over the tip of the syringe, as the solution polymerized. This formed a hole in the center of the cylinder, which was later used as a place to insert a wire hanger for the initially brittle and finally fragile gel, in order to measure its swelling and degradation kinetics as a change of mass with time. Gelation occurred within one to five minutes and the syringe was allowed to sit for 4 hours at room temperature. At this point the wire was removed from the center of the solid and the end of the plastic syringe was removed with a razor blade. The plunger was then used to extrude the gel from the syringe in 100 μL increments which were cut into small cylinders as they hung out from the end of the syringe. The gels were then placed on tarred wire holders and the initial mass of the assembly was determined. The resulting clear isotropic gels had the composition of poly(HPMA-co-HPMAGlySuc) 98.5:1.5. The gels were then incubated in pH 5, 100 mM sodium acetate buffer for 24 hours. They were then charged into vials of differing pH to study the degradation kinetics.
The gels were placed in 15 mL vials containing 10 mL of buffers. The masses of wire holders were determined before the gels were placed on them. The original mass of the gel in its relaxed state was also known by subtraction from the total mass of the assembly. The original dry mass of the gel was determined by drying three gels in their relaxed state from each composition and determining the dry mass of the gel. These values were then used to calculate the inverse of the volume fraction of polymer in the gel (Qv) respectively, using the densities of the polymer and water. The incubation solutions were changed each time the gel was weighed. The gels were incubated in a gyratory water-bath shaker (New Brunswick Scientific, New Brunswick, N.J.). The temperature was regulated to be 37±2° C. and the shaker was set to 30 rotations per minute.
The property of the change of volume of the polymer network can be measured by weighing the gel at different time points.
Since the swelling is related to network cross-link density by weighing the macroscopic gels at various times throughout their swelling one can obtain information about the change in cross-link density and thus the rate of degradation.

SMILES: C=C(C)C(=O)NCC(C)OC(=O)COC(=O)COC(=O)CCC(=O)OCC(=O)OCC(=O)OC(C)CNC(=O)C(=C)C (stereo not shown) [HPMAGlyGlySuc, di[({[1-methyl-2-(2-methylprop-2-enoylamino)ethyl]oxycarbon-yl}methyl)oxycarbonyl]methylbutane-1,4-dioate]
- degradation / hydrolysis and swelling kinetics of the gel (in words) [1]: fastest hydrolysis and swelling kinetics
- time to complete degradation of the gel [1]: about 5 days
- release of rhodamine labeled HPMA polymer backbone [2]: largely occurs to the greatest extent at the onset of complete degradation of the polymer
- release of rhodamine labeled albumin from the gel network [2]: more closely follows the swelling of the network

SMILES: C=C(C)C(=O)NCC(C)OC(=O)COC(=O)CCC(=O)OCC(=O)OC(C)CNC(=O)C(=C)C (stereo not shown) [HPMAGlySuc, di{[1-methyl-2-(2-methylprop-2-enoylamino)ethyl]oxycarbonyl}methyl butane-1,4-dioate]
- swelling with water relative to total initial polymer volume [3]: approximately 20 times the total initial polymer volume

SMILES: C=C(C)C(=O)NCC(C)OC(=O)[C@H](C)OC(=O)CCC(=O)O[C@@H](C)C(=O)OC(C)CNC(=O)C(=C)C (stereo partly drawn) [HPMALacSuc, di(1S)-1-{[1-methyl-2-(2-methylprop-2-enoylamino)ethyl]oxycarbonyl}ethyl butane-1,4-dioate]
- degradation / hydrolysis and swelling kinetics of the gel (in words) [4]: slower degradation than the glycolic

SMILES: C=C(C)C(=O)NCC(C)OC(=O)CCC(=O)OC(C)CNC(=O)C(=C)C (stereo not shown) [HPMASuc, bis-1-methyl-2-(2-methylprop-2enoylamino)ethyl-1,4-butanedioate, reference compound]
- degradation / hydrolysis and swelling kinetics of the gel (in words) [4]: non-degradable
